One series deals with THP-1. As to the kind of experiment: IRBC phagocytosis by THP-1. Format: cell-based, human.
A further series concerns peripheral monocytes. As to the kind of experiment: IRBC phagocytosis by CD14+ peripheral monocytes. Format: cell-based, human. The conditions noted are these: IGFBP7 100 ng/ml, Pf line NHP1106, biological replicates.
The subject of another series is P. vivax. The experiment in a line: Rosetting assay (percentage of IRBC that form rosettes), P. vivax. Format: cell-based, Plasmodium vivax. As to the method:
Rosetting assay was conducted when 70% of the parasite population reached late stages (late trophozoites and schizonts) unless stated otherwise. The parasite culture suspension was stained subvitally with Giemsa (5% stain working concentration) for 20 minutes. Subsequently, 7.6 μl stained suspension was pipetted onto a clean glass slide, immediately covered with a 22×32 mm glass cover slip. The wet mount was examined with light microscope using 1000× magnification. Rosetting rate (percentage of rosetting IRBCs) was defined as the percentage of IRBC (over 200 recruited IRBC) that form rosettes. Experiments were conducted in blinded manner.
Following data review, coupled with critical information (i.e. the protein's subcellular location and cellular functions) from UNIPROT, candidates were shortlisted for further validation. The parasite culture suspensions were incubated with CSMT and antibodies against the shortlisted proteins (see Table 6, items 35, 37, 39-41) and tested in rosetting assay at a final concentration of 25 μg/ml.
The parasite culture suspension was divided into three groups, one served as control, the second group was added with recombinant human IGFBP7 (final concentration 100 ng/ml), and the third group was mixed with CSMT (CSMT:parasite culture=1:3). After one hour of incubation under in vitro cultivation conditions, rosetting assay was conducted. Separately, a portion of the IGFBP7 suspension was heat-denatured at 95° C. for one hour, prior to use in rosetting assay.
Parasite cultures were incubated with IGFBP7 (working concentrations 0-25,000 ng/ml) prior to rosetting assay. Time course experiments were performed with laboratory-adapted P. falciparum lines (3D7, MKK183, FVT402, FVT201, WPP3065) incubated with IGFBP7 (100 ng/ml). Rosetting assay was conducted after five minutes, using 7 μl of the suspension. The remaining suspension was kept back into the incubator. Rosetting assay was repeated at five minute-intervals until one hour-post-IGFBP7 exposure. Reversibility of IGFBP7-mediated rosette-stimulation was also tested. Parasite lines (3D7, MKK183, FVT402, FVT201, WPP3065) were incubated with IGFBP7 (100 ng/ml) and rosetting assay was conducted with 7 μl of the suspension. The remaining suspension was centrifuged at 1500 g for five minutes. Supernatant was removed, and the pellet was washed thrice with culture medium, followed by re-suspension with culture medium. Five minutes later, 7 μl of the suspension was taken for rosetting assay, subsequently repeated at five minute-intervals up to one-hour post-IGFBP7 removal.
Magnetic activated cell sorter (MACS)-sorted late stage-IRBC (purity 95%) were trypsinized at different working concentrations. The first group was mixed with enzyme trypsin (final trypsin concentration of 10 μg/ml), and the second was mixed with enzyme trypsin (final trypsin concentration of 1 mg/ml). The third served as untreated control. The cells were incubated at 37° C. for 30 minutes. After that, the cells were washed with serum-enriched medium for three times. Each group was incubated with or without IGFBP7 (100 ng/ml) prior to rosetting assay. P. falciparum line CS2 deficient of SBP1 [(SBP1-KO-CS2), which lacks P. falciparum erythrocyte membrane protein 1 (PFEMP1) on its IRBC surface] and its wild type (CS2-WT) counterpart were cultured as described. Their rosetting rates post-incubation with IGFBP7 at different concentrations were determined. P. falciparum clones NF54 VAR2CSA_WT and NF54_T934D (cannot express PfEMP1 variant VAR2CSA on IRBC surface^32) were cultivated. Experiments were conducted when parasite population reached late stages. For each parasite line, two conditions were applied; one was incubated with IGFBP7 (100 ng/ml) whereas the other one acted as IGFBP7-free control. Rosetting assay was conducted afterwards. Five replicates were conducted for each experiment setting. […]

Series [1] concerns Plasmodium berghei ANKA line expressing luciferase (PbAluc). The experiment in a line: Experimental cerebral malaria (ECM) in PbAluc infected C57BL/6 mice. Format: in vivo. As to the method: Here, we set out to determine the effect of IGFBP7 administration on mice. In particular, we set out to determine the dose and protection from ECM death of mouse IGFBP7 administered i.v. on days 5-12 post-infection (dpi) to Plasmodium berghei ANKA line expressing luciferase (PbAluc) infected C57BL/6 mice.
IGFBP7 was suspended in 1×PBS (concentrations: 0, 50, 100, 200, 1000, and 5000 ng/ml). A separate aliquot of IGFBP7 (5000 ng/ml) was prepared and boiled for one hour, to be used as control.
For each protein concentration group, I.V. administration of 100 μl per mouse was done.
Mice were infected with PbAluc. Prior to infection, an aliquot of serum was collected for each mouse using blood collected through orbital bleeding. Sera were also collected on days 3 and 6 post-infection (dpi) for further testing in future.
I.V. administration was done on daily basis from 5-12 dpi. The n number for each concentration group was 8 except group 5 ng/mouse (n=7) and group 500 ng/mouse (n=5).
The mice were monitored daily, and their signs and symptoms were observed. Dead mice were removed.
Survival of mice within the experimental cerebral malaria (ECM) period (6-12 dpi) across the experimental groups was recorded.
Mice that survived the ECM period were monitored until their death by malaria-induced anemia.

Where “and” joins values, the source holds several entries; their conditions need not be identical. Identical values can stand only once.

With “insulin-like growth factor binding protein 7 [IGFBP7]”, the phagocytosis rates with THP-1 (THP-1, IGFBP7 100 ng/ml, Pf line NHP1106, biological replicates) is 10.0% (2×) and 5.0% and 11.0% and 8.0%; in the series with peripheral monocytes, 6.0% and 10.0% and 9.0% and 11.0% and 4.0%. For the same substance, the “IRBC phagocytosis compared with non-IGFBP7-exposed counterparts” value with THP-1 (five different P. falciparum lines, IGFBP7-incubated prior to THP-1 exposure) is “significantly less phagocytosed”. In addition, the “rosette-stimulating capacity after heat denaturation” value with P. vivax (95° C. for one hour, Pv n=4) is “abolished”. In addition, in the series on P. vivax (IRBC treated with 10 μg/ml or 1 mg/ml trypsin, IGFBP7 100 ng/ml, Pv n=4), the “effect on rosetting of trypsin-treated IRBC” value is on record as “did not significantly alter rosetting”. The “concentration at which significant rosette-stimulation noted” value in the series on P. vivax (Pv n=7, one hour incubation, 0-25,000 ng/ml tested) came to 50 ng/mL. Also, the “effect on rosetting with URBC of different ABO blood groups” value in the series on P. vivax (URBC groups A, B, O, AB, rhIGFBP7 100 ng/ml, Pv n=7) was “significantly increase rosetting rates regardless of the blood groups”. In addition, in the series on P. vivax (URBC treated with heparinase I or III 25 μg/ml, purified Pv IRBC), the “rosetting with heparinase-treated URBC” value was “did not induce rosetting”. In the series with P. vivax (leukocyte-free parasite culture, P. vivax isolates), the “concentration at which rosette stimulation reaches a plateau” value stood at 100 ng/mL. The “ECM death compared with control group” value in series [1] (10, 20, 100, and 500 ng/mouse i.v. daily 5-12 dpi, vs denatured IGFBP7) is listed as “significantly lower ECM death”. Also, the “survival rate compared with control” value in series [1] (10, 20, 100 and 500 ng/mouse i.v. daily 5-12 dpi, vs denatured 500 ng/mouse IGFBP7, till 25 dpi) was “significant difference in survival rate”. In series [1] (groups 10, 20, 100 and 500 ng/mouse, after 8 dpi), the “signs of cerebral malaria” value was “reversal of CM signs”. Besides, the “dose adequate to confer protection from cerebral malaria” value in series [1] (i.v. daily 5-12 dpi) was 10 ng/mouse.

For the origin of these results see patent publication US12109253B2, “Use of IGFBP7 for treating malaria” (AGENCY FOR SCIENCE, TECHNOLOGY AND RESEARCH, priority 2019, dated 2024).
